Measured values reported in patent US10517889B2, “Modulators of SMAD7 expression” (Ionis Pharmaceuticals, Inc., priority 2017, dated 2019).
Strand notation (5' to 3'): a small letter for the sugar, then the base; units joined by * are phosphorothioate-linked, units joined directly phosphodiester-linked; [ ] holds rarer units or linkages, { } end groups; capitals alone tell only the bases. k = constrained ethyl (cEt); [5mC] = 5-methylcytosine; d = 2'-deoxy (DNA)

Test system: human SMAD7 mRNA
Experiment: Antisense inhibition of human SMAD7 mRNA expression in Hep3B cells by 3-10-3 cEt gapmers, 10,000 nM, electroporation (Example 2)
Type: cell-based
Details: approximately 24 hours
Summary of the method: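 Percent inhibition of SMAD7 mRNA, relative to untreated cells, after ~24 h exposure of electroporated Hep3B cells to 10,000 nM cEt gapmer; levels by qRT-PCR, corrected for total RNA.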

[1] = Hep3B cells, electroporation with 10,000 nM antisense oligonucleotide, RTS5062, percent inhibition of SMAD7 mRNA relative to untreated control cells
[2] = Hep3B cells, electroporation, 10,000 nM antisense oligonucleotide, RTS5062, relative to untreated control cells
[3] = Hep3B cells, electroporation with 10,000 nM antisense oligonucleotide, SMAD7 mRNA by RT-PCR (RTS5062), relative to untreated control cells
[4] = Hep3B cells, electroporation with 10,000 nM antisense oligonucleotide, primer probe set RTS5062, relative to untreated control cells
[5] = SMAD7 mRNA, Hep3B cells, 10,000 nM antisense oligonucleotide, electroporation, primer probe set RTS5062, relative to untreated control cells
[6] = SMAD7 mRNA, Hep3B cells, electroporation with 10,000 nM antisense oligonucleotide, primer probe set RTS5062, relative to untreated control cells
[7] = Hep3B cells, 10,000 nM antisense oligonucleotide, electroporation, RT-PCR primer probe set RTS5062, relative to untreated control cells

Substance: 799277 (antisense k[5mC]*kT*k[5mC]*d[5mC]*dG*dG*dG*d[5mC]*dA*dG*d[5mC]*d[5mC]*dA*kG*kT*kT) [compound 799277]
- % Inhibition [1]: 21%

Substance: 799739 (antisense k[5mC]*kA*k[5mC]*d[5mC]*d[5mC]*d[5mC]*dT*dA*dT*d[5mC]*dA*dA*dA*kA*kA*kA) [compound 799739]
- % inhibition of SMAD7 mRNA expression [2]: 0%

Substance: 799452 (antisense kA*kA*kA*dA*dG*dA*dA*d[5mC]*dA*d[5mC]*dA*dG*d[5mC]*kA*k[5mC]*kT) [compound 799452]
- % Inhibition [3]: 44%

Substance: 799018 (k[5mC]*kT*kG*d[5mC]*dA*dA*dA*d[5mC]*d[5mC]*dT*d[5mC]*dT*d[5mC]*kT*kG*k[5mC]; antisense) [compound 799018]
- % Inhibition [4]: 29%

Substance: 799367 (antisense kA*kG*kT*d[5mC]*dT*d[5mC]*d[5mC]*dG*dA*dG*dT*dT*dA*kT*k[5mC]*k[5mC]) [compound 799367]
- % Inhibition [3]: 41%

Substance: 790465 (kA*kA*kG*dG*dA*dG*d[5mC]*dG*dA*dA*d[5mC]*dA*dT*kG*kA*k[5mC]; antisense) [compound 790465]
- % Inhibition [3]: 54%

Substance: 800793 (antisense kT*kG*kA*d[5mC]*dT*d[5mC]*dT*dT*dG*dT*dT*dG*dT*k[5mC]*k[5mC]*kG) [compound 800793]
- % Inhibition [5]: 53%

Substance: 829887 (antisense k[5mC]*kG*kT*dG*dG*dT*d[5mC]*dA*dT*dT*dG*dG*dG*k[5mC]*k[5mC]*kG) [compound 829887]
- % Inhibition [6]: 47%

Substance: 790655 (k[5mC]*kG*kT*dG*dT*dT*dA*dA*dA*dG*d[5mC]*dT*dG*kA*kG*k[5mC]; antisense) [compound 790655]
- % inhibition of SMAD7 mRNA expression [4]: 42%

Substance: 799696 (antisense kA*kA*kG*dT*dT*dA*dT*d[5mC]*dT*dG*dG*dG*dA*kA*kG*k[5mC]) [compound 799696]
- % inhibition of SMAD7 mRNA expression [2]: 43%

Substance: 800063 (antisense kG*k[5mC]*k[5mC]*dA*dT*dA*d[5mC]*dA*dA*dA*dT*dG*dT*kG*k[5mC]*kA) [compound 800063]
- % Inhibition [3]: 0%

Substance: 830080 (kT*kA*kT*dA*d[5mC]*d[5mC]*d[5mC]*dT*dG*d[5mC]*dA*d[5mC]*dT*kT*kT*k[5mC]; antisense) [compound 830080]
- % Inhibition [3]: 32%

Substance: 799141 (antisense kT*kT*kA*dT*dG*dA*d[5mC]*dG*dG*dA*d[5mC]*d[5mC]*dA*kA*kA*kT) [compound 799141]
- % Inhibition [4]: 47%

Substance: 799371 (antisense k[5mC]*k[5mC]*k[5mC]*dT*dT*dT*d[5mC]*d[5mC]*dA*dT*dT*dA*dT*kT*k[5mC]*k[5mC]) [compound 799371]
- % Inhibition [3]: 28%

Substance: 829822 (kT*kG*kT*dT*dT*d[5mC]*dA*dG*d[5mC]*dG*dG*dA*dG*kG*kA*kA; antisense) [compound 829822]
- % Inhibition [6]: 43%

Substance: 799255 (antisense k[5mC]*kA*kA*dA*dA*d[5mC]*dT*d[5mC]*d[5mC]*dA*dA*dA*dG*kG*kT*kG) [compound 799255]
- % Inhibition [3]: 0%

Substance: 799457 (antisense k[5mC]*kA*k[5mC]*dG*dA*dT*dA*dG*dT*d[5mC]*dT*d[5mC]*dA*kG*k[5mC]*kA) [compound 799457]
- % inhibition of SMAD7 mRNA expression [4]: 62%

Substance: 830078 (kA*k[5mC]*k[5mC]*dA*d[5mC]*dA*dT*dT*d[5mC]*dA*dG*dG*dG*kT*kG*kT; antisense) [compound 830078]
- % Inhibition [3]: 0%

Substance: 790489 (k[5mC]*kT*k[5mC]*dT*dT*dG*dA*d[5mC]*dT*dT*d[5mC]*d[5mC]*dG*kA*kG*kG; antisense) [compound 790489]
- % inhibition of SMAD7 mRNA expression [4]: 0%

Substance: 799903 (antisense kT*kG*k[5mC]*dA*dT*dG*dG*d[5mC]*dA*dT*dT*dG*dT*k[5mC]*kT*kG) [compound 799903]
- % Inhibition [3]: 34%

Substance: 799849 (kA*kT*kA*dA*dG*d[5mC]*d[5mC]*dG*dA*dT*d[5mC]*dA*d[5mC]*kA*kA*kA; antisense) [compound 799849]
- % Inhibition [1]: 41%

Substance: 798942 (antisense k[5mC]*kG*kA*dG*dA*dA*dG*dA*dA*dG*dA*dA*dA*kA*k[5mC]*k[5mC]) [compound 798942]
- % Inhibition [4]: 35%

Substance: 798783 (k[5mC]*kG*kG*d[5mC]*dT*dA*dA*dG*dG*dT*dG*dA*dT*kG*kG*kG; antisense) [compound 798783]
- % Inhibition [3]: 45%

Substance: 799301 (antisense k[5mC]*k[5mC]*kA*d[5mC]*dA*d[5mC]*dA*dT*dT*d[5mC]*d[5mC]*dA*dA*kA*kA*kG) [compound 799301]
- % inhibition of SMAD7 mRNA expression [2]: 37%

Substance: 799249 (antisense kG*k[5mC]*kG*dG*d[5mC]*d[5mC]*dA*d[5mC]*dG*dA*d[5mC]*dA*dG*kT*kA*kT) [compound 799249]
- % inhibition of SMAD7 mRNA expression [4]: 26%

Substance: 829875 (antisense k[5mC]*kG*kG*dG*dT*dT*dG*dT*d[5mC]*d[5mC]*dA*dG*dT*kG*kT*kG) [compound 829875]
- % Inhibition [6]: 52%

Substance: 798859 (k[5mC]*kG*kG*dA*d[5mC]*dT*dT*dG*dA*dT*dG*dA*dA*kG*kA*kT; antisense) [compound 798859]
- % Inhibition [7]: 14%

Substance: 799843 (antisense kG*kG*kA*dG*dG*dA*dG*dG*d[5mC]*dA*dA*dA*dT*kT*k[5mC]*kA) [compound 799843]
- % Inhibition [1]: 42%

Substance: 790612 (kT*kA*kA*dA*d[5mC]*d[5mC]*dT*dT*dT*dG*dT*dA*dG*kT*kT*kA; antisense) [compound 790612]
- % Inhibition [5]: 64%

Substance: 799182 (antisense kG*kT*kA*dG*dT*dT*dA*dG*dA*dA*dA*dA*dA*kT*kA*kG) [compound 799182]
- % Inhibition [4]: 20%

Substance: 799488 (antisense kT*kG*kG*dA*dA*dG*dA*d[5mC]*dA*d[5mC]*d[5mC]*d[5mC]*d[5mC]*k[5mC]*kA*k[5mC]) [compound 799488]
- % Inhibition [3]: 42%

Substance: 799392 (antisense kT*kA*kT*dT*dA*dG*dA*d[5mC]*d[5mC]*dG*dG*d[5mC]*dA*k[5mC]*k[5mC]*kA) [compound 799392]
- % Inhibition [3]: 46%

Substance: 798845 (k[5mC]*kG*k[5mC]*dA*d[5mC]*d[5mC]*dT*dT*d[5mC]*dT*dG*d[5mC]*dA*k[5mC]*k[5mC]*kA; antisense) [compound 798845]
- % Inhibition [3]: 18%

Substance: 830033 (antisense kT*k[5mC]*k[5mC]*d[5mC]*d[5mC]*d[5mC]*dT*dT*dG*dG*dA*dA*dA*kT*kG*kG) [compound 830033]
- % Inhibition [3]: 28%

Substance: 799032 (kA*kG*kG*dT*dA*d[5mC]*dT*dG*d[5mC]*d[5mC]*dT*d[5mC]*dT*kG*k[5mC]*k[5mC]; antisense) [compound 799032]
- % inhibition of SMAD7 mRNA expression [4]: 42%

Substance: 799377 (antisense kT*kT*kG*d[5mC]*dA*dG*dG*dT*dG*dA*d[5mC]*dT*dG*kG*kA*kG) [compound 799377]
- % inhibition of SMAD7 mRNA expression [4]: 15%

Substance: 799079 (antisense kG*kA*kG*dA*dT*d[5mC]*d[5mC]*dA*dG*dG*dA*dG*d[5mC]*kA*kG*kA) [compound 799079]
- % Inhibition [4]: 46%

Substance: 799636 (k[5mC]*kA*k[5mC]*dA*dG*dA*d[5mC]*dT*dG*d[5mC]*d[5mC]*dA*dA*kA*kT*k[5mC]; antisense) [compound 799636]
- % inhibition of SMAD7 mRNA expression [2]: 55%

Substance: 800026 (kT*k[5mC]*kA*dG*dT*dA*d[5mC]*dA*dA*dG*dG*dA*d[5mC]*kT*kA*kA; antisense) [compound 800026]
- % Inhibition [3]: 50%

Substance: 799693 (antisense kT*kT*kA*dT*dG*dA*d[5mC]*dA*d[5mC]*dA*dG*dT*dA*kA*k[5mC]*kA) [compound 799693]
- % inhibition of SMAD7 mRNA expression [2]: 17%

Substance: 798837 (kG*k[5mC]*kT*dG*dT*d[5mC]*d[5mC]*dG*dA*dG*dG*d[5mC]*dA*kA*kA*kA; antisense) [compound 798837]
- % Inhibition [7]: 33%

Substance: 829794 (kG*kA*kT*d[5mC]*dT*dT*d[5mC]*d[5mC]*d[5mC]*dG*dT*dA*dA*kG*kA*kT; antisense) [compound 829794]
- % Inhibition [5]: 24%

Substance: 799887 (antisense k[5mC]*kA*kG*dG*dA*d[5mC]*dA*dG*dT*dT*dT*dT*dT*k[5mC]*k[5mC]*k[5mC]) [compound 799887]
- % Inhibition [3]: 29%

Substance: 799520 (antisense kG*kA*kT*dT*dG*dA*dT*dG*dT*dT*dG*dG*dG*k[5mC]*kT*kG) [compound 799520]
- % inhibition of SMAD7 mRNA expression [2]: 51%

Substance: 798758 (kG*k[5mC]*kT*dG*d[5mC]*dG*d[5mC]*dA*dG*dG*d[5mC]*dT*dG*k[5mC]*kG*k[5mC]; antisense) [compound 798758]
- % inhibition of SMAD7 mRNA expression [4]: 0%

Substance: 799003 (antisense kA*k[5mC]*kA*d[5mC]*dA*dG*d[5mC]*d[5mC]*dG*d[5mC]*dA*d[5mC]*dA*k[5mC]*kT*k[5mC]) [compound 799003]
- % inhibition of SMAD7 mRNA expression [4]: 0%
